Source: patent US6417182B1, “Pharmaceutical compositions comprising metal complexes” (AnorMED Inc., priority 1993, dated 2002)

What was measured:
[1] = test system: murine (RAW264) macrophage cell lines; test: in vitro cell culture test: available nitric oxide (nitrite+nitrate, Griess) in activated macrophages; type: cell-based; conditions: up to 100 μM
Procedure: In the in vitro cell culture tests, murine (RAW264) macrophage cell lines, which can be induced to produce nitric oxide, were seeded, 10^6 cells/well, onto 24 well culture plates of 2 ml volume per well, in Eagles modified minimal essential medium (MEM) plus 10% foetal bovine serum without phenol red.
The cells were activated to produce nitric oxide, with 10 μg/ml lipopolysaccharide and 100 units/ml interferon γ for 18 hours. Concurrently, test compounds made up in MEM were added at non-cytotoxic concentrations. […]
Background nitric oxide was assessed by measurement of nitrate and nitrite in cells which were not activated. […]
Nitric oxide was determined by measurement of nitrate and nitrite in the cell supernatant These anions are the stable end-products of reactions of NO in solution. […] Nitrite was determined using the Griess reaction in which nitrite reacts with 1% sulphanilamide in 5% H3PO4/0.1% naphthylethylenediamine dihydrochloride to form a chromophore absorbing at 540 nm Nitrate was determined by reducing nitrate to nitrite with a bacterial nitrate reductase from Pseudomonas oleovorans and then measuring nitrite with the Griess reaction. […] The effect of test compounds on available nitric oxide (measured as nitrite+nitrate) was determined. […]

rat tail artery = test: ex vivo rat tail artery perfusion test (vasoconstriction by removal of endogenous NO); design: species or system Wistar rats; conditions: for vasoconstriction on application of test compound (in words): 10 μM and 100 μM (Example 26 also 1000 μM); for reversibility of vasoconstriction: washout with Krebs solution
Source text: In the ex vivo tests, segments of rat tail artery (0.8-1.5 cm) were dissected free from normotensive adult Wistar rats. The arteries were internally perfused with Krebs solution (mM: NaCl 118, KCl 4.7, NaHCO3, 25, NaH2PO4 1.15, CaCl2 2.5, MgCl2 1.1, glucose 5.6 and gassed with 95% O2/5% CO2 to maintain a pH of 7.4) in a constant flow perfusion apparatus. A differential pressure transducer located upstream of the vessel detected changes in back pressure. The rat tail artery preparation was pre-contracted with 6.5 μM phenylephrine to give a physiologically normal pressure of 100-120 mm Hg. The pre-contracted vessels were then perfused with the test compound. The arteries were perfused with Krebs solution between applications of test compound to wash out the test compound.
Pressure changes in the system served to indicate artery vasoconstriction. The vasoconstriction is a direct result of the removal of endogenous nitric oxide (edrf) from the endothelial cells of the rat tail artery.

[2] = in vitro NO uptake test (manometric pressure decrease; IR spectrum of freeze-dried product); conditions: aqueous solution under argon, 20-24° C., NO gas in headspace, pressure recorded over one hour
Procedure: The resulting solution was placed in a three-necked pear-shaped flask and stirred by a magnetic stirrer at constant speed of 1000 rpm, at a constant temperature in the range 20° C.-24° C. A manometer was attached to the flask, and purified, dried nitric oxide gas (known volume in the range 3-5 cm^3) was introduced via a septum, using a gas syringe, at atmospheric pressure into the headspace above the reaction solution. The pressure within the flask was recorded periodically over a period of one hour.
A control experiment was carried out according to the above but without any complex present.
On completion of each in vitro test, the reaction solution was freeze-dried. An infrared spectrum of the freeze-dried product provided information on metal-NO bond formation.

Compound | dose dependence of reduction of available nitric oxide [1] | vasoconstriction on application of test compound (in words) (rat tail artery) | reversibility of vasoconstriction (rat tail artery) | pressure decrease indicating binding of NO to the metal compound [2] | % Vasoconstriction (rat tail artery; 10 μM, artery pre-contracted with 6.5 μM phenylephrine)
O.O.O=C([O-])CN(CCN(CC(=O)[O-])CC(=O)O)CC(=O)[O-].[Cl-].[K+].[Ru+3] [Example 1, K[Ru(Hedta)Cl]2H2O] | reduced in a dose-dependent fashion |  |  |  | 
CC(=O)C=C(C)[O-].O=C([O-])CN(CCN(CC(=O)[O-])CC(=O)O)CC(=O)O.[Ru+3] [Example 2, [Ru(H2edta)(acac)]] |  | dose-dependent vasoconstriction | reversible by washout with Krebs solution |  | 
O.O=C([O-])CN(CCO)CCN(CC(=O)[O-])CC(=O)[O-].[Cl-].[K+].[Ru+3] [Example 3, K[Ru(hedtra)Cl]H2O] |  | dose-dependent vasoconstriction | reversible by washout with Krebs solution |  | 
O.O=C([O-])CN(CC(=O)[O-])CC(=O)O.O=C([O-])CN(CC(=O)[O-])CC(=O)O.O=C([O-])CN(CC(=O)[O-])CC(=O)O.O=C([O-])CN(CC(=O)[O-])CC(=O)O.[K+].[K+].[Ru+3].[Ru+3] [Example 7, K[Ru(Hnta)2]½H2O] |  |  |  | pressure decrease indicated binding of NO | 
O.O=C([O-])CN(CCN(CC(=O)[O-])CC(=O)O)CCN(CC(=O)[O-])CC(=O)O.[Cl-].[K+].[Ru+3] [Example 8, K[Ru(H2dtpa)Cl]H2O] |  |  |  | pressure decrease indicated binding of NO | 
CC(=O)[O-].CC(=O)[O-].CC(=O)[O-].CC(=O)[O-].[Cl-].[Ru+3].[Ru+3] [Example 14, [Ru2(OAc)4]Cl] |  | dose-dependent vasoconstriction | reversible by washout with Krebs solution |  | 
Cc1occc(=O)c1[O-].Cc1occc(=O)c1[O-].Cc1occc(=O)c1[O-].[Ru+3] [Example 26, [Ru(maltol)3]] |  | dose-dependent vasoconstriction | reversible by washout with Krebs solution |  | 
[Ru(NH3)5Cl]Cl2 [Example 15] |  | dose-dependent vasoconstriction | reversible by washout with Krebs solution |  | 16%
